Results: patent US12599622B2, “Compounds to modulate intestinal absorption of nutrients” (The Brigham and Women's Hospital, Inc., priority 2013, dated 2026)

Tests used:
[1] = integrative permeation test: glucose barrier on mucin-coated membrane in Franz cell; conditions: paste in simulated stomach acid pH 1.0 on mucin-coated membrane; normalized to membrane without material (0% blocked)
Procedure: Specifically, a cellulose nitrate membrane (pore size: 0.2 μm, Whatman, Germany) was incubated in a 3% w/v porcine stomach mucin (Sigma-Aldrich, USA) solution in Hank's balanced salt solution (HBSS) and gently shaken for 2 hours at room temperature. The membrane was washed with distilled deionized water (DDW, pH 7) to remove the excess mucin solution. The mucin-coated membranes were used within 1 hour following preparation. To measure the thickness of the mucin layer, the mucin-coated membrane was lyophilized and imaged using scanning electron microscope (SEM) and the thickness of randomly selected positions was examined (average mucin layer thickness: ˜100 μm).
The dry weight was calculated from dry weights of material-attached membranes and mucin-coated membranes. […] The permeation test was performed in triplicate. The glucose concentration was measured using high performance liquid chromatography (HPLC, Agilent, USA) with an analytical C18 column (Zorbax Eclipse XDB-C18, Agilent). The flow rate was 1 ml/minute, the eluent was DDW, and the wavelength of UV detector was 195 nm.
The barrier properties of the resultant particles were measured by adding 0.9 ml of particle dispersion and 0.1 ml of 10× simulated stomach acid.

[2] = dynamic viscosity by rheometer in simulated stomach acid; format: physicochemical; conditions: 1% w/v in simulated stomach acid
Procedure: Dynamic viscosity was measured using a 20-mm plate with 200-μm gaps (shear rate: 0.01-100 l/s in log scale, shear rate of 1 l/s was selected to compare viscosity of materials).

[3] = aluminum release / aluminum content by ICP-AES; format: physicochemical
Procedure: To confirm the pH dependent release of aluminum from sucralfate and ASP, aluminum-release was measured during ASP paste formation. […] The aluminum content in the supernatants was measured using inductively coupled plasma atomic emission spectroscopy (ICP-AES, ULTIMA-2, Horiba).
To measure additional aluminum release from aluminum-pre-released ASP, formed pastes were washed with DDW, and 500 mg was added to 10 ml of simulated stomach acid. The samples were vortexed for 5 minutes and incubated for 2 hours. The aluminum content in the supernatant solutions was measured using ICP-AES.

[4] = mechanical stability of pastes (wet and dry weight over time); format: physicochemical
Procedure: To assess mechanical stability and physical properties of ASP, each 500 mg of ASP prepared from HCl solutions (0.1-0.3N) was added to 1 ml of simulated stomach acid (pH 1.0) in 37° C. At time points including 0, 10, 30, 60, 120 and 300 minutes, supernatant was removed to measure the wet weight. The remaining paste was lyophilized to measure the dry weight.

Sprague-Dawley (SD) rats = assay: Oral Glucose Tolerance Test (OGTT) after pre-gavage; format: in vivo, rat; conditions: 15-hour fasted rats, 500 mg/kg 3 times
Procedure: To evaluate the in vivo effect of ASP-PC on postprandial glucose absorption, Sprague-Dawley (SD) rats were pre-gavaged with the particles and tested using the Oral Glucose Tolerance Test (OGTT) method. […] For shorter fasting time, the rats were fasted for 5 hour (starting time: 7 am the same day of OGTT) and gavaged with saline or ASP-PC (starting time: 12 am the same day, dose: 500 mg/kg rat, 3 times, 1-hour apart for each gavage). Blood was collected from the tail vein to measure blood glucose level using a glucometer (OneTouch UltraSmart, LifeScan Inc., USA). Statistical significance was determined using a paired Student t-test. Results were considered significant when p≤0.05.
ASP-PC particles were gavaged in Sprague-Dawley (SD) rats fasted for 5 hour (FIGS. 11A, 11B, and 11C) or 15 hour (FIGS. 11D, 11E, andllF) (dose: 500 mg/kg rat, 3 times, 1-hour apart for each gavage).

[5] = followed by excretion via feces; cited from earlier work

sucrose octasulfate-aluminum complex [sucralfate]
blocking of glucose (barrier property to glucose permeation) [1]: 62%
viscosity [2]: very high viscosity
percentage of total aluminum released ([3]; in 0.1N HCl): ~9.4%
percentage of total aluminum released ([3]; in 0.3N HCl): ~44.8%
original aluminum content released ([3]; reaction with simulated stomach acid (pH 1.0)): ~9.4%
total mass liberated upon exposure to stomach acid [4]: ~10%
peak glucose values at all other time points versus saline (Sprague-Dawley (SD) rats): similar
5-minutes glucose level following OGTT (Sprague-Dawley (SD) rats; p<0.003 vs saline): 97.8 ± 7.3 mg/dL
duration in the GI tract [5]: 2 to 6 h
